From patent US20110178015A1, “METHODS OF TREATMENT USING BIASED LIGANDS FOR RECEPTORS SUCH AS THE PTH RECEPTOR” (priority 2007, published 2011)
One block for each substance: values may come before it.

How the values were obtained:
[1] = target: type I PTH/PTH-related peptide receptor (PTH1R), endogenous in primary murine osteoblasts (mouse) (UniProt P41593); assay: cell-based or functional assay
[2] = system: PTH1 receptor; details: Gardella 1996; Sneddon 2004; Bisello 2002; cited from earlier work
[3] = target: T1, AT1A angiotensin receptor (Rattus norvegicus, UniProt P25095); details: cited from earlier work
T1 sequence (P25095 1-359): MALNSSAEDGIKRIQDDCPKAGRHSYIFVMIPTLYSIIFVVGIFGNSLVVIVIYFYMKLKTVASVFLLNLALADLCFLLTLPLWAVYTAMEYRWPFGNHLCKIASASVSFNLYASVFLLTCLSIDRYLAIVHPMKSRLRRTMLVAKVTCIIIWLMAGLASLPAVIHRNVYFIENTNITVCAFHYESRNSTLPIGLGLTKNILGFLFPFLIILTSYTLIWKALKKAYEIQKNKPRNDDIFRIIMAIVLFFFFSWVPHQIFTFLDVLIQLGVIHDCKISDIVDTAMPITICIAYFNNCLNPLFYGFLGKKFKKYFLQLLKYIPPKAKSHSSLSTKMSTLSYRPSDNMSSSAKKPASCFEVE

Chain of type I PTH/PTH-related peptide receptor (PTH1R), endogenous in primary murine osteoblasts (mouse) (P41593 27-591): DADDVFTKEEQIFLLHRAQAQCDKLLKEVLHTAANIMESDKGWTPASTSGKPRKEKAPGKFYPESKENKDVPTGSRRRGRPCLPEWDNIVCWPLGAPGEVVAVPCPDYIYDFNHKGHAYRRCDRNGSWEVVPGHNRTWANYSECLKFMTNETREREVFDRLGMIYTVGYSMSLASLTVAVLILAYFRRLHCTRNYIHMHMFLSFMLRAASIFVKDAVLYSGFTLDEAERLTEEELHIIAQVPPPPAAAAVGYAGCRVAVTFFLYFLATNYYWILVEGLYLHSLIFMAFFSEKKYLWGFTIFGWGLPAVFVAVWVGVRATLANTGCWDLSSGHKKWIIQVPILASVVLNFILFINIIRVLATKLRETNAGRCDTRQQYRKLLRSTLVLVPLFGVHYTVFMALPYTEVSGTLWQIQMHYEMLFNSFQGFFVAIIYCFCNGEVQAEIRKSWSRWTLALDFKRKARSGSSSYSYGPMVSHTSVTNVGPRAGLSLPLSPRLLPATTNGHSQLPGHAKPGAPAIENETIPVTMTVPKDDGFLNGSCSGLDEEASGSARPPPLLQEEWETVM

ERK1/2 phosphorylation in WT primary osteoblasts, 1 µM PTH-βarr, 5 min (fold over basal) [1]: 3
Substance: (D-Trp12, Tyr34)-PTH(7-34) (from UniProt P01268 38-65) (peptide)

Substance: Trp^l-PTHrP(1-36) (WVSEHQLLHDKGKSIQDLRRRFFLHHLIAEIHTAEI; Parathyroid hormone-related protein; UniProt P12272 37-72, looked up, variant A1W) [PTHrP analog promoting Gs-coupling without β-arrestin recruitment, reference compound]
PTH1 receptor-Gs coupling / cAMP production [2]: promoting Gs-coupling and cAMP production
arrestin-dependent sequestration / β-arrestin recruitment [2]: without inducing β-arrestin recruitment or desensitization

Substance: [Sar1,Ile4,Ile8]SII
G protein-independent/β-arrestin-dependent signaling to ERK1/2 [3]: selectively stimulating G protein-independent/β-arrestin-dependent 7TMR signaling to ERK1/2

ERK1/2 phosphorylation in WT primary osteoblasts, 100 nM PTH(1-34), 5 min (fold over basal) [1]: 3
Substance: PTH(1-34) (peptide)
